For one assay, the system named is U937. Put plainly: Phagocytosis assay with Latex Beads-Rabbit IgG-FITC, U937 cells. The class given is cell-based. The following applies: FIG. 6. The text has this:
(§1) Phagocytosis is a very important physiological process which is characterized by the ingestion of foreign particles and killing of microorganisms by phagocytic leukocytes (monocytes, macrophages, granulocytes). The phagocytic leukocytes are part of a first line of natural defense against potential pathogens. Phagocytotic active of phagocytes can be measured using a phagocytosis assay. The phagocytosis assay uses fluorescently-opsonized latex beads which are contacted with phagocytic cells. After maintaining the beads in contact with the cell, fluorescent reading of cells is used to assess the degree of phagocytosis. Thus, the degree of phagocytosis from cells treated with different compounds can be compared quantifiably.
EDTA chelates Zinc. Phagocytotic immune cells were contacted with fluorescently-opsonized latex beads in the presence of ZnCl2 and EDTA to determine the effect addition of zinc-chelating EDTA changes the effects of zinc on the phagocytotic activity of phagocytotic immune cells.
(§2) 96-well plates were seeded with either phagocytic immune cells THP1 (cat #TIB202, ATCC) and U937 (cat #CRL-1593.2, ATCC) at 5×10^4 cells/well in 100 μl of RPMI-1640 medium containing 10 ng/ml phorbol myristic acid (PMA, Sigma) for 48 hr in a CO2 incubator at 37° C.
(§3) Medium was changed with 100 μl/ml of RPMI-1640 (Item #500290, Cayman). U937 cells were treated with ZnCl2 or ZnCl2 and EDTA. THP1 cells were treated with ZnO or ZnO plus EDTA. 10 μl of the Latex Beads-Rabbit IgG-FITC solution were added to each well. Plates were mixed gently and cells were incubated in a CO2 incubator at 37° C. for 24-48 hrs.
(§4) After incubation, plates were centrifuged for 5 minutes at 400×g at room temperature. Supernatant was carefully aspirated. 50 μl of Trypan blue solution was added to each well and plates were incubated for 1-2 mins at room temperature. Plates were centrifuged for 5 minutes at 400×g at room temperature. Supernatant was carefully aspirated. Fluorescent intensity was read using in plate reader at excitation 485/emission 535 nm.

In the next assay the test system is THP1. Nature of the assay: Phagocytosis assay with Latex Beads-Rabbit IgG-FITC, THP1 cells. In kind it is cell-based. The following applies: FIG. 7; for phagocytosis activity: versus EDTA control.
Source text: as §1, §2, §3, §4

On to `O=C(O)CN(CCN(CC(=O)O)CC(=O)O)CC(=O)O` [EDTA], for which, in the assay with U937 (EDTA alone versus untreated control), the phagocytosis activity entry is on record as “No difference in phagocytosis activity”.
Regarding `[Cl-].[Cl-].[Zn+2]` [ZnCl2], the phagocytosis activity entry with U937 (12.5 μM, versus untreated control) is “more phagocytosis activity than untreated control cells”; with U937 (25 μM, versus untreated control), “more phagocytosis activity than untreated control cells”.
In the case of `[O]=[Zn]` [ZnO, zinc oxide], the “phagocytosis activity, comparison among the tested ZnO amounts” value in the assay with THP1 (6.25 μM compared with 12.5 μM and 25 μM) is on record as “greatest increase”. The phagocytosis activity result in the assay with THP1 (6.25 μM), with THP1 (12.5 μM) and in the assay on THP1 (25 μM) was “more phagocytosis activity than EDTA control cells” each time.

For the origin of these results see patent publication US20240050344A1, “Methods of Enhancing Natural Defense in the Oral Cavity” (Colgate-Palmolive Company, priority 2021, published 2024).
